Data reported in paper PMC9181938, “Fluorinated Analogues of Lepidilines A and C: Synthesis and Screening of Their Anticancer and Antiviral Activity” (Molecules, 2022).
Read-outs that look alike come from different tables or passages of the source.

Assays:
[1] = system: Human herpesvirus 5 (HCMV); experiment: Antiviral screening at 10 µM, plaque reduction; format: cell-based; details: Human betaherpesvirus 5, antiviral screening, HCMV-infected cells, read-out: Cell line (viability %) HCMV
Method: Antiviral properties of compounds 1a, 1c, 1a[PF6], 1c[PF6], 9b[PF6], 9c[PF6], 10a–10d, 2a, and 2b were assessed against five viruses: Human herpesvirus 1 (HSV-1, VR-539), Human parainfluenza virus type 3 (HPIV-3, VR-93), Human adenovirus 5 (AdV5, VR-5), Human herpesvirus 5 (HCMV, VR-977), and Encephalomyocarditis virus (EMCV, VR-1479). Viruses were purchased from the American Type Culture Collection (ATCC, Manassas, VA, USA).
All tested compounds were dissolved in DMSO (dimethyl sulfoxide, Sigma-Aldrich, Darmstadt, Germany) and then suspended in Minimum Essential Medium (MEM; Sigma-Aldrich, Darmstadt, Germany) supplemented with 2% heat-inactivated fetal bovine serum (FBS; Sigma-Aldrich, Darmstadt, Germany), 2 mM L-glutamine (Sigma-Aldrich, Darmstadt, Germany), and 100 units/mL penicillin G with […] streptomycin (Sigma-Aldrich, Darmstadt, Germany).
Vero, LLC-MK2, NCTC clone 929, MRC-5, and HeLa cells were propagated in Minimum Essential Medium (MEM; Sigma-Aldrich, Darmstadt, Germany) supplemented with 10% heat-inactivated fetal bovine serum (FBS; Sigma-Aldrich, Darmstadt, Germany) and 100 units/mL penicillin G with […] streptomycin (Sigma-Aldrich, Darmstadt, Germany). Upon reaching 80–90% confluency, cells were harvested with 0.25% trypsin in 1 mM EDTA (Life Technologies, Warsaw, Poland) and seeded onto 96-well microplates at 2 × 10^5 cells/mL. After overnight incubation of cells at 37 °C in a humidified atmosphere containing 5% CO2, the culture medium was removed, and cells were inoculated with the respective virus solution in MEM supplemented with 2% FBS and antibiotics (HSV-1 MOI 0.005, 1000 virions/mL; HPIV-3 MOI 0.01, 2000 virions/mL; AdV5 MOI 0.005, 1000 virions/mL, EMCV MOI 0.005, 1000 virions/mL, HCMV 20 PFU (plaque forming units) per well). After a 1-h (HSV-1, HPIV-3, AdV5, and EMCV) or 2-h adsorption period (HCMV), the residual virus was removed, and the infected cells were further incubated with a 100 μL freshly prepared solution of tested compounds diluted with a maintenance medium supplemented with 2% FBS to obtain compound concentrations of 10 µM. The final concentration of DMSO in the medium was 0.1%. All experiments were carried out in triplicate. The cells monolayers were incubated with the compounds at 37 °C in a humidified atmosphere containing 5% CO2 until the typical cytopathic effect (CPE) was visible. Viral infection was evaluated by the MTT assay or plaque reduction assay (HCMV). After incubation with drugs, the cells were treated with 3-(4,5-dimethylthiazol-2-yl)-2,5-diphenyltetrazolium bromide dye solution (MTT, Sigma-Aldrich, Darmstadt, Germany) (25 μL, 5 mg/mL) for 2 h and lysed with solvent solution (100 μL) containing: DMF (Sigma-Aldrich, Darmstadt, Germany) (45 mL), SDS (Sigma-Aldrich, Darmstadt, Germany) (13.5 g), and distilled water (55 mL). After overnight incubation at 37 °C, the optical density at 550 nm and a reference wavelength of 670 nm were measured on a microplate spectrophotometer, Varioskan Lux (Thermo Fisher Scientific, Waltham, MA, USA). The number of HCMV plaques was counted under an inverted microscope Olympus IX73 (Olympus, Tokyo, Japan).

[2] = Cytotoxicity MTT assay (0.1–1000 µM), CC50; format: cell-based, Human; details: human, HeLa cells
[3] = Cytotoxicity screening at 10 µM (MTT); format: cell-based, Cercopithecus aethiops; details: Cercopithecus aethiops, Vero cells, read-out: Cell line (viability %) Vero
[4] = system: Human adenovirus 5 (AdV5); experiment: Antiviral activity assay (0.1–1000 µM), IC50; format: cell-based; details: Human mastadenovirus C; Table S4, range 0.1-1000 µM, AdV5; read-out: IC50 (M) AdV5
Outline: (§1)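 Confluent cell monolayers were infected (AdV5 and EMCV MOI 0.005, HPIV-3 MOI 0.01, 1-h adsorption; HCMV 20 PFU/well, 2-h adsorption), then incubated at 37 °C with compounds (0.1–1000 µM) in 2% FBS MEM until CPE appeared. Infection was read by MTT or, for HCMV, plaque counting. IC50 was the concentration halving plaques versus untreated infected controls.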

[5] = system: Human parainfluenza virus type 3 (HPIV-3); experiment: Antiviral activity assay (0.1–1000 µM), IC50; format: cell-based; details: Human respirovirus 3, Table S4, range 0.1-1000 µM, HPIV-3; read-out: IC50 (M) HPIV-3
Outline: as §1

[6] = system: Encephalomyocarditis virus (EMCV); experiment: Antiviral activity assay (0.1–1000 µM), IC50; format: cell-based; details: Cardiovirus A, Table S4, range 0.1-1000 µM, read-out: IC50 (M) EMCV
Outline: as §1

For Cc1c(C)n(Cc2ccccc2)c(=S)n1Cc1ccccc1 [Compound 10a], the viability at 10 µM [1] was 3.6%, the CC50 at 48 h ([2]; MTT, 48 h, read-out: CC50 Cancer Cell Lines HeLa) was under 20 µM and the CC50 at 48 h ([2]; Table S2, range 0.1-1000 µM, read-out: Cell line (CC50 M) HeLa) was 16.9 ± 2.19 µM. The viability at 48 h, 10 µM [3] was 83.8%, the IC50 [4] was over 1.69e-05 M and the IC50 [5] was over 1.62e-05 M. The IC50 [6] was over 4.6e-05 M.
